Drawing on publication PMC6717892 (The EMBO Journal, 2019), this text covers Kd for one compound.

The assay has as its target T1, Bd1971 (Bdellovibrio bacteriovorus, UniProt Q6MLN6).
T1 construct: ITC: Bd1971ΔEAL (residues 1–150); crystal: full-length
The assay can be described thus: ITC (two-site model) and co-crystal structure; also activates phosphodiesterase activity (K half […]). Type of assay: binding.

Each structure is given as a SMILES string.

T1 sequence (Q6MLN6 entry or part of it): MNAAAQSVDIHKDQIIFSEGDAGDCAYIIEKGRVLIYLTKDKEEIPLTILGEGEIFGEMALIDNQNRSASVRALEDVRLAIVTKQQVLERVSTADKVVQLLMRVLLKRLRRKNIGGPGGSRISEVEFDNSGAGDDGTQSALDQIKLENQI

A word on the Kd: it is the concentration at which binding is half-saturated. Read a low Kd as higher affinity. Regarding `Nc1nc2c(ncn2[C@@H]2O[C@@H]3COP(=O)(O)O[C@H]3[C@H]2O)c(=O)[nH]1` [cGMP], binding was put at a Kd of 769 nM.
